One test concerns primary normal human bladder epithelial cells.
Assay: not given
The settings on record: biological antiproliferation assays; cited from earlier work.
Regarding Galβ1-3GalNAcβ-O-TVPAAVVVA, the “antiproliferative activity (previously determined, in words)” value is “completely inactive”.
Turning to Galβ1-4GlcNAcα-O-SLPAAVVVA, the “antiproliferative activity (previously determined, in words)” value is “essentially equipotent”.
As to “Neu5Acα2-3Galβ1-3GalNAcα-O-TVPAAVVVA [APF]”, the “antiproliferative activity (previously determined, in words)” value is “essentially equipotent”.
On to Neu5Acα2-3Galβ1-4GlcNAcα-O-TVPAAVVVA, for which the “antiproliferative activity (previously determined, in words)” value is reported as “essentially equipotent”.
Turning to Neu5Acα2-3Galβ1-4GlcNAcαO-SLPAAVVVA, the “antiproliferative activity (previously determined, in words)” value was “essentially equipotent”.
On to TVPAAVVVA [nonglycosylated nonapeptide], for which the “antiproliferative activity (previously determined, in words)” value was “completely inactive”.

The next test has the same test system. Nature of the test: 3H-thymidine incorporation. Type of test: cell-based.
Conditions: not given
For orientation: Incorporation of labelled thymidine or its analogues reports DNA synthesis.
Take Galβ1-3GalNAcα-O-SLPAAVVVA [compound 2]: the “loss of potency/activity compared to parent as-APF 1 (orders of magnitude)” value was 2 orders of magnitude.
On the same count and under the same terms, under Galβ1-3GalNAcα-O-SVPAAVVVA [compound 3] stands 4 orders of magnitude.
As to Galβ1-3GalNAcα-O-TLPAAVVVA [compound 4], the “antiproliferative activity relative to as-APF 1 (in words)” value is listed as “inactivation”.
Same read-out and setting: under “Galβ1-3GalNAcα-O-TLS(^ΨMe,Mepro)-AAVVVA [compound 9]” stands “completely abolished activity”; under “Galβ1-3GalNAcα-O-TV-Aze-AAVVVA [compound 10]”, “completely abolished activity”.
Regarding “Galβ1-3GalNAcα-O-TV-Hyp-AAVVVA [compound 12]”, the “loss of potency/activity compared to parent as-APF 1 (orders of magnitude)” value is reported as 2–3 orders of magnitude.
With “Galβ1-3GalNAcα-O-TV-Pip-AAVVVA [compound 15]”, the “antiproliferative activity relative to as-APF 1 (in words)” value is “complete retention”.
Turning to “Galβ1-3GalNAcα-O-TVPAAAAAA [compound 25]”, the “antiproliferative activity relative to as-APF 1 (in words)” value was “decreased as-APF activity”.
On the same count and under the same terms, for “Galβ1-3GalNAcα-O-TVPAAGGGA [compound 26]” the value was “complete inactivation”; for “Galβ1-3GalNAcα-O-TVPAAVVVAK [compound 33]”, “complete loss of activity”; for “Galβ1-3GalNAcα-O-TVPAAVVVAK(Ac) [compound 35]”, “some of which was restored”.
For “Galβ1-3GalNAcα-O-TVPAAVVVAK(dansyl) [compound 31]”, the “antiproliferative activity relative to as-APF 1 (in words)” value is on record as “no loss of activity”.

Another test deals with normal bladder epithelial as well as cells derived from urothelial carcinomas.
Assay: not given
To be noted: native and synthetic APF; cited from earlier work.
As for “Neu5Acα2-3Galβ1-3GalNAcα-O-TVPAAVVVA [APF]”, the concentrations inhibiting proliferation entry was “picomolar to low nanomolar”.
